Consider eight molecules from publication PMC7144320, “Antitumor properties of certain spirooxindoles towards hepatocellular carcinoma endowed with antioxidant activity” (Journal of Enzyme Inhibition and Medicinal Chemistry, 2020).

One experiment has as its system HepG2 hepatocellular carcinoma cell line. As to the kind of experiment: MTT anti-proliferative assay, HepG2. The format is cell-based. The note with it: Homo sapiens, 48 h of incubation. The method, then:
(§1) Spirooxindoles 6a–p were evaluated for their anti-proliferative potency towards HepG2 liver cancer and PC-3 prostate cancer cell lines. Both cells lines were cultured as monolayers in DMEM supplemented with 10% foetal bovine serum (FBS), L-glutamine (2 mM), penicillin (100 U/mL) and streptomycin sulphate (100 µg/mL). Then, cells were sub-cultured with trypsine/EDTA solution, counted with haemocytometer and plated onto 96-well plates (5000 cells/well) and left overnight so as to form a semi-confluent monolayer.
(§2) Spirooxindoles 6a–p were tested for their in vitro anti-HCC activity against HepG2 cell line, and for their anti-prostate cancer activity against PC-3 cell line by the use of MTT reduction assay. The anticancer drug Adriamycin was co-assayed as the positive control.
Broadly, the IC50 is the concentration that inhibits the measured activity by half. A higher IC50 goes with weaker potency. For the molecule `COc1ccc(C2=C(C#N)C3(C(=O)Nc4ccccc43)c3c(-c4cccs4)nn(-c4ccccc4)c3N2)cc1` (stereo not shown) [Compound 6c], the IC50 came to 19.1 µM.
Same read-out and setting: the value for `N#CC1=C(c2ccccc2)Nc2c(c(-c3cccs3)nn2-c2ccccc2)C12C(=O)Nc1ccc(Cl)cc12` (stereo not shown) [Compound 6e] was 8.4 µM; that for `N#CC1=C(c2ccc(Cl)cc2)Nc2c(c(-c3cccs3)nn2-c2ccccc2)C12C(=O)Nc1ccccc12` (stereo not shown) [Compound 6d] was 49.1 µM; that for `Cc1ccc(C2=C(C#N)C3(C(=O)Nc4ccc(Cl)cc43)c3c(-c4cccs4)nn(-c4ccccc4)c3N2)cc1` (stereo not shown) [Compound 6f] was 32.7 µM.
`Cc1ccc(C2=C(C#N)C3(C(=O)Nc4ccc(Br)cc43)c3c(-c4cccs4)nn(-c4ccccc4)c3N2)cc1` (stereo not shown) [Compound 6j]: half-maximal inhibition (IC50) required 9.9 µM.
On the same count and under the same terms, the value for `N#CC1=C(c2ccccc2)Nc2c(c(-c3cccs3)nn2-c2ccccc2)C12C(=O)Nc1ccc(Br)cc12` (stereo not shown) [Compound 6i] was 6.3 µM; that for `Cc1ccc(C2=C(C#N)C3(C(=O)Nc4ccccc43)c3c(-c4cccs4)nn(-c4ccccc4)c3N2)cc1` (stereo not shown) [Compound 6b] was 21 µM; that for `COc1ccc2c(c1)C1(C(=O)N2)C(C#N)=C(c2ccc(Cl)cc2)Nc2c1c(-c1cccs1)nn2-c1ccccc1` (stereo not shown) [Compound 6p] was more than 50 µM.

System in the next experiment: not listed separately
As to the kind of experiment: Ferric reducing antioxidant power (FRAP). The following applies: 593 nm, 30 min at 37 °C. Here is the method:
The Benzie and Strain method[33] was adopted to assess the ferric reducing antioxidant power (FRAP) for spirooxindoles 6a–p. Absorbance of mixtures was recorded at 593 nm after incubation for 30 min at 37 °C. FRAP results were expressed as μM Fe^2+ equivalents.
FRAP assay is a widely used antioxidant assay that uses antioxidant substances as reducing agents in a redox-linked colorimetric reaction, wherein Fe^3+ is reduced to Fe^2+ at acidic pH that results in a formation of a coloured ferrous-probe complex from a colourless ferric-probe complex. In this assay, the electron donation capacity (reflecting the electron transfer ability) of the examined compounds is evaluated.
In this study, all spirooxindoles 6a–p herein reported were evaluated for their potential FRAP. The results were expressed as µM Fe^2+ equivalents and presented in Table 6, where the higher µM Fe^2+ equivalents value means higher FRAP and subsequently higher antioxidant capacity.
In the case of `COc1ccc(C2=C(C#N)C3(C(=O)Nc4ccccc43)c3c(-c4cccs4)nn(-c4ccccc4)c3N2)cc1` (stereo not shown) [Compound 6c], the “FRAP, µM (Fe^2+ Eq.)” value was 10.32 µM (Fe^2+ Eq.).
Same read-out and setting: the value for `N#CC1=C(c2ccccc2)Nc2c(c(-c3cccs3)nn2-c2ccccc2)C12C(=O)Nc1ccc(Cl)cc12` (stereo not shown) [Compound 6e] was 10.12 µM (Fe^2+ Eq.); that for `N#CC1=C(c2ccc(Cl)cc2)Nc2c(c(-c3cccs3)nn2-c2ccccc2)C12C(=O)Nc1ccccc12` (stereo not shown) [Compound 6d] was 10.99 µM (Fe^2+ Eq.).
With `Cc1ccc(C2=C(C#N)C3(C(=O)Nc4ccc(Cl)cc43)c3c(-c4cccs4)nn(-c4ccccc4)c3N2)cc1` (stereo not shown) [Compound 6f], the “FRAP, µM (Fe^2+ Eq.)” value is 11.36 µM (Fe^2+ Eq.).
On the same count and under the same terms, the value for `Cc1ccc(C2=C(C#N)C3(C(=O)Nc4ccc(Br)cc43)c3c(-c4cccs4)nn(-c4ccccc4)c3N2)cc1` (stereo not shown) [Compound 6j] was 10.34 µM (Fe^2+ Eq.); that for `N#CC1=C(c2ccccc2)Nc2c(c(-c3cccs3)nn2-c2ccccc2)C12C(=O)Nc1ccc(Br)cc12` (stereo not shown) [Compound 6i] was 11.88 µM (Fe^2+ Eq.).
With `Cc1ccc(C2=C(C#N)C3(C(=O)Nc4ccccc43)c3c(-c4cccs4)nn(-c4ccccc4)c3N2)cc1` (stereo not shown) [Compound 6b], the “FRAP, µM (Fe^2+ Eq.)” value was 6.933 µM (Fe^2+ Eq.).
With `COc1ccc2c(c1)C1(C(=O)N2)C(C#N)=C(c2ccc(Cl)cc2)Nc2c1c(-c1cccs1)nn2-c1ccccc1` (stereo not shown) [Compound 6p], the “FRAP, µM (Fe^2+ Eq.)” value is on record as 11.18 µM (Fe^2+ Eq.).

A further experiment has as its system non-tumorigenic human breast MCF-10A cell line. Nature of the experiment: Cytotoxicity towards non-tumorigenic MCF-10A cells. Type of experiment: cell-based.
Conditions: not given
The molecule `COc1ccc(C2=C(C#N)C3(C(=O)Nc4ccccc43)c3c(-c4cccs4)nn(-c4ccccc4)c3N2)cc1` (stereo not shown) [Compound 6c] displayed a half-maximal inhibitory concentration (IC50) of 141 µM.
On the same count and under the same terms, the value for `N#CC1=C(c2ccccc2)Nc2c(c(-c3cccs3)nn2-c2ccccc2)C12C(=O)Nc1ccc(Cl)cc12` (stereo not shown) [Compound 6e] was 69.7 µM; that for `Cc1ccc(C2=C(C#N)C3(C(=O)Nc4ccc(Cl)cc43)c3c(-c4cccs4)nn(-c4ccccc4)c3N2)cc1` (stereo not shown) [Compound 6f] was 159 µM.
As for `Cc1ccc(C2=C(C#N)C3(C(=O)Nc4ccc(Br)cc43)c3c(-c4cccs4)nn(-c4ccccc4)c3N2)cc1` (stereo not shown) [Compound 6j], it took 146 µM to reach half-maximal inhibition (IC50).
On the same count and under the same terms, the value for `N#CC1=C(c2ccccc2)Nc2c(c(-c3cccs3)nn2-c2ccccc2)C12C(=O)Nc1ccc(Br)cc12` (stereo not shown) [Compound 6i] was 76.9 µM.
The same measure, in the same setting: the value for `Cc1ccc(C2=C(C#N)C3(C(=O)Nc4ccccc43)c3c(-c4cccs4)nn(-c4ccccc4)c3N2)cc1` (stereo not shown) [Compound 6b] was 122 µM.

The next experiment relates to PC-3 prostate cancer cell line. Nature of the experiment: MTT anti-proliferative assay, PC-3. Type of experiment: cell-based. The following applies: 48 h of incubation. The method, then:
as §1, §2
A general note: Tetrazolium dyes change colour on reduction, which living cells bring about.
Consider `COc1ccc(C2=C(C#N)C3(C(=O)Nc4ccccc43)c3c(-c4cccs4)nn(-c4ccccc4)c3N2)cc1` (stereo not shown) [Compound 6c], for which it took 43.7 µM to reach half-maximal inhibition (IC50).
The same measure, in the same setting: the value for `N#CC1=C(c2ccccc2)Nc2c(c(-c3cccs3)nn2-c2ccccc2)C12C(=O)Nc1ccc(Cl)cc12` (stereo not shown) [Compound 6e] was 13.5 µM; that for `N#CC1=C(c2ccc(Cl)cc2)Nc2c(c(-c3cccs3)nn2-c2ccccc2)C12C(=O)Nc1ccccc12` (stereo not shown) [Compound 6d] was more than 50 µM.
Molecule `Cc1ccc(C2=C(C#N)C3(C(=O)Nc4ccc(Cl)cc43)c3c(-c4cccs4)nn(-c4ccccc4)c3N2)cc1` (stereo not shown) [Compound 6f] came in with an IC50 of 29.3 µM.
`Cc1ccc(C2=C(C#N)C3(C(=O)Nc4ccc(Br)cc43)c3c(-c4cccs4)nn(-c4ccccc4)c3N2)cc1` (stereo not shown) [Compound 6j] returned a 50% inhibitory concentration (IC50) of 26.6 µM.
In turn, `N#CC1=C(c2ccccc2)Nc2c(c(-c3cccs3)nn2-c2ccccc2)C12C(=O)Nc1ccc(Br)cc12` (stereo not shown) [Compound 6i] gave an IC50 of 17.9 µM.
On the same count and under the same terms, the value for `Cc1ccc(C2=C(C#N)C3(C(=O)Nc4ccccc43)c3c(-c4cccs4)nn(-c4ccccc4)c3N2)cc1` (stereo not shown) [Compound 6b] was 34.2 µM.
On the same count and under the same terms, the value for `COc1ccc2c(c1)C1(C(=O)N2)C(C#N)=C(c2ccc(Cl)cc2)Nc2c1c(-c1cccs1)nn2-c1ccccc1` (stereo not shown) [Compound 6p] was more than 50 µM.

System in the next experiment: not listed separately
Nature of the experiment: DPPH radical scavenging assay. The note with it: mean ± SD of three experiments; 30 min, 517 nm. Here is the method: The antioxidant potential of spirooxindoles 6a–p against DPPH˙ was evaluated as per previously described procedures by Brand-Williams et al.[32]. DPPH solution was prepared by dissolving 0.024 g DPPH in methanol (100 mL). In 96-well plates, × μL sample and 200-x μL DPPH solution were added. The plate was incubated for 30 min at room temperature in the dark, and finally, absorbance was recorded at 517 nm wavelength. Ascorbic acid was used as positive control. The percent radical scavenging potential was calculated for each compound via the following equation: Scavenging effect (%) = {(Absorbance of control − Absorbance of sample)/Absorbance of control} × 100.
The DPPH (2,2-diphenyl-1-picrylhydrazyl) radical scavenging activity assay is considered as one of the most common and simple methods for measuring the antioxidant ability to trap free radicals. […] Substances that have the potential to act as electron donors result in reduction of this DPPH radical to the corresponding DPPH2 disclosing their antioxidant potential. The principle of the method relies upon measuring the absorbance of the odd electrons of DPPH at 517 nm. The absorbance decreases, in the presence of free radical scavengers, proportional to the decrease of the DPPH radical concentration.
A general note: The DPPH test is a chemical assay of radical scavenging.
For the molecule `COc1ccc(C2=C(C#N)C3(C(=O)Nc4ccccc43)c3c(-c4cccs4)nn(-c4ccccc4)c3N2)cc1` (stereo not shown) [Compound 6c], the “DPPH radical scavenging IC50” value turned out to be 43.04 ± 2.39 µg/mL.
Same read-out and setting: the same measure for `N#CC1=C(c2ccccc2)Nc2c(c(-c3cccs3)nn2-c2ccccc2)C12C(=O)Nc1ccc(Cl)cc12` (stereo not shown) [Compound 6e]: 36.03 ± 1.37 µg/mL; for `N#CC1=C(c2ccc(Cl)cc2)Nc2c(c(-c3cccs3)nn2-c2ccccc2)C12C(=O)Nc1ccccc12` (stereo not shown) [Compound 6d]: 33.43 ± 1.24 µg/mL; for `Cc1ccc(C2=C(C#N)C3(C(=O)Nc4ccc(Cl)cc43)c3c(-c4cccs4)nn(-c4ccccc4)c3N2)cc1` (stereo not shown) [Compound 6f]: 40.31 ± 2.61 µg/mL.
The same measure, in the same setting: the value for `Cc1ccc(C2=C(C#N)C3(C(=O)Nc4ccc(Br)cc43)c3c(-c4cccs4)nn(-c4ccccc4)c3N2)cc1` (stereo not shown) [Compound 6j] was 43.42 ± 3.04 µg/mL; that for `N#CC1=C(c2ccccc2)Nc2c(c(-c3cccs3)nn2-c2ccccc2)C12C(=O)Nc1ccc(Br)cc12` (stereo not shown) [Compound 6i] was 36.38 ± 2.71 µg/mL.
For `Cc1ccc(C2=C(C#N)C3(C(=O)Nc4ccccc43)c3c(-c4cccs4)nn(-c4ccccc4)c3N2)cc1` (stereo not shown) [Compound 6b], the “DPPH radical scavenging IC50” value came to 113.45 ± 5.59 µg/mL.
Turning to `COc1ccc2c(c1)C1(C(=O)N2)C(C#N)=C(c2ccc(Cl)cc2)Nc2c1c(-c1cccs1)nn2-c1ccccc1` (stereo not shown) [Compound 6p], the “DPPH radical scavenging IC50” value was 55.05 ± 3.41 µg/mL.

For another experiment, the system named is HepG2 hepatocellular carcinoma cell line. As to the kind of experiment: MTT anti-proliferative assay, HepG2. The format is cell-based. The following applies: 48 h exposure, phase contrast microscopy.
As to `N#CC1=C(c2ccccc2)Nc2c(c(-c3cccs3)nn2-c2ccccc2)C12C(=O)Nc1ccc(Cl)cc12` (stereo not shown) [Compound 6e], the “Morphological changes of HepG2 cells” value was “cell rounding, shrinkage and monolayer disruption”.
As for `N#CC1=C(c2ccccc2)Nc2c(c(-c3cccs3)nn2-c2ccccc2)C12C(=O)Nc1ccc(Br)cc12` (stereo not shown) [Compound 6i], the “Morphological changes of HepG2 cells” value is “cell rounding, shrinkage and monolayer disruption”.
